Experimental data taken from patent publication US5710245A, “Alpha-helix mimetics and methods relating thereto” (Molecumetics, Ltd., priority 1995, dated 1998).

Test: Circular dichroism (alpha-helicity) of peptide in water
Assay type: physicochemical
Details: ratio of mean residue ellipticity at 222 nm to 208 nm, 75 μM in water
Excerpt: Alpha-helicity of a peptide is typically determined by measuring its circular dichroism (CD), and CD data is normally presented as mean residue ellipticies [.THETA.]m. Alpha-helical peptides show two negative Cotton effects at 208 nm and 222 nm, and a positive Cotton effect at 193 nm, while the CD spectra of peptides with random coil secondary structure are dominated by the increasing negative Cotton effect at shorter wavelength. Alpha-helicity may be estimated from the value at 222 nm, and by comparing the negative Cotton effects at 222nm and 208nm. Increasing fraction of [.THETA.]m (222 nm) divided by [.THETA.]m(208 nm) correlates with increasing alpha-helicity. High values for [.THETA.]m(208 nm) compared to [.THETA.]m (222 nm) and a shifting minimum from 208 nm to shorter wavelengths indicate random coil conformation.
An NPY analog having the structure Ac-RAAANLITRQRY--NH2 was synthesized according to standard solid phase peptide synthetic techniques. The NPY analog was then dissolved in water at a concentration of 75 μM, and its CD measured using a JASCO J500 CD spectrometer at a temperature of both 3° C. and 25° C. Structure VI was synthesized according to Example 3, and its CD was similarly measured at both 3° C. and 25° C. (at a concentration of 75 μM).

- Circular Dichroism 222/208 3° C. (3° C.): 0.38
- Circular Dichroism 222/208 25° C. (25° C.): 0.41
Substance: Ac-RAAANLITRQRY-NH2 [NPY Analog, Ac-RAAANLITRQRY--NH2]
